Experimental data reported in PMC5584945, “Evaluation of robenidine analog NCL195 as a novel broad-spectrum antibacterial agent” (PLoS ONE, 2017).
In brackets after ≈: the same amount, converted by molar mass. Read-outs that look alike come from different tables or passages of the source.

Tests used:
S. aureus Xen29 = experiment: Time-dependent killing assay; assay type: cell-based, Staphylococcus aureus; details: for Time to clear all Xen29: 4× MIC
Description: Time kill assays were performed (in duplicate) essentially as described previously with slight modifications. Briefly, a few colonies of luminescent S. pneumoniae strain D39LUX or luminescent S. aureus ATCC 12600 (Xen29) from an overnight HBA were emulsified in normal saline and adjusted to A600 nm = 0.10 (equivalent to approx. 5 × 10^7 c.f.u. per ml) and the bacterial suspension further diluted 1:20 in saline. […] The compounds were serially diluted in 100% DMSO at 100× the final desired concentration and 100 μl of appropriate concentrations added to each 10 ml preparation. Duplicate cultures were incubated at 37°C (+ 5% CO2 for S. pneumoniae D39), with samples withdrawn at 0, 0.5, 1, 2, 4, 6, 8 and 24 h, serially diluted 10-fold and plated on HBA overnight at 37°C (+ 5% CO2 for S. pneumoniae D39) for bacterial enumeration.

S. aureus = experiment: MIC, broth micro-dilution (CLSI); assay type: cell-based, Staphylococcus aureus; details: Staphylococcus aureus; for MIC: read-out: MIC
S. pneumoniae = experiment: MIC, broth micro-dilution (CLSI); assay type: cell-based, Streptococcus pneumoniae; details: for MIC90 / MIC / MIC50: Streptococcus pneumoniae
[1] = ATCC 29213 / MSSA, ATCC29213 MSSA (ST5), absence of FBS
[2] = IRISH 1 – HA-EMRSA (ST8), absence of FBS
[3] = IRISH 2 – HA-EMRSA (ST8), absence of FBS
[4] = MRSA / USA300, USA 300 - MRSA (ST8), absence of FBS
[5] = MRSA, AUS2-MRSA (ST239), absence of FBS
[6] = MRSA, AUS3-MRSA (ST239), absence of FBS
[7] = MRSA, BENGAL BAY PVL+ – CA-MRSA (ST772), absence of FBS
[8] = MRSA, Classic–HA-MRSA (ST250), absence of FBS
[9] = MRSA, NY JAPAN – HA MRSA (ST5), absence of FBS
[10] = MRSA, QLD PVL+ –CA-MRSA (ST93), absence of FBS
[11] = MRSA, ST398–CA-MRSA-V (ST398), absence of FBS
[12] = MRSA, WSPP – PVL neg CA MRSA (ST30), absence of FBS
[13] = S2 Table isolates, absence of FBS
[14] = TAIWAN PVL+ – CA-cMRSA (ST59), absence of FBS
[15] = UK 15 PVL+ – HA-EMRSA (ST22), absence of FBS
[16] = UK 15 – HA-EMRSA (ST22), absence of FBS
[17] = UK 16 – HA- EMRSA (ST36), absence of FBS
[18] = UK 17 – HA-EMRSA (ST247), absence of FBS
[19] = S1 Table isolates, 5% FBS + 3% washed RBC
[20] = ATCC6303, ATCC 6303 (serotype 3), 5% FBS + 3% washed RBC
[21] = D39/D39LUX (serotype 2), 5% FBS

SMILES: CC1(C)S[C@@H]2[C@H](NC(=O)[C@H](N)c3ccccc3)C(=O)N2[C@H]1C(=O)O [Ampicillin]
- Time to clear all Xen29 (S. aureus Xen29): 6 h
- Regrowth after 24 h (S. aureus Xen29; at the concentrations tested (2× and 4× MIC)): some S. aureus regrowth was observed
- MIC90 (S. aureus; 23 isolates): > 16 µg/mL
- MIC (S. aureus; [1]): 2 µg/mL (≈ 5.72 µM)
- MIC (S. aureus; [2]): > 16 µg/mL
- MIC (S. aureus; [3]): > 16 µg/mL
- MIC (S. aureus; [4]): > 16 µg/mL
- MIC (S. aureus; [5]): > 16 µg/mL
- MIC (S. aureus; [6]): > 16 µg/mL
- MIC (S. aureus; [7]): 8 µg/mL (≈ 22.9 µM)
- MIC (S. aureus; [8]): > 16 µg/mL
- MIC (S. aureus; [9]): > 16 µg/mL
- MIC (S. aureus; [10]): > 16 µg/mL
- MIC (S. aureus; [11]): > 16 µg/mL
- MIC (S. aureus; [12]): > 16 µg/mL
- MIC50 (S. aureus; [13]): > 16 µg/mL
- MIC90 (S. aureus; [13]): > 16 µg/mL
- MIC (S. aureus; [14]): 8 µg/mL (≈ 22.9 µM)
- MIC (S. aureus; [15]): 16 µg/mL (≈ 45.8 µM)
- MIC (S. aureus; [16]): > 16 µg/mL
- MIC (S. aureus; [17]): > 16 µg/mL
- MIC (S. aureus; [18]): > 16 µg/mL
- MIC range (S. pneumoniae; [19]): 0.06 to 1 µg/mL
- MIC90 (S. pneumoniae; 21 isolates): 0.5 µg/mL (≈ 1.43 µM)
- MIC (S. pneumoniae; A66.1 (serotype 3), 5% FBS): 0.125 µg/mL (≈ 0.358 µM)
- MIC (S. pneumoniae; [20]): 0.125 µg/mL
- MIC (S. pneumoniae; [21]): 0.125 µg/mL (≈ 0.358 µM)
- MIC (S. pneumoniae; EF3030 (serotype 19F), 5% FBS): 0.5 µg/mL (≈ 1.43 µM)
- MIC (S. pneumoniae; L82016 (serotype 6B), 5% FBS): 0.06 µg/mL (≈ 0.172 µM)
- MIC (S. pneumoniae; P9 (serotype 6A), 5% FBS): 0.06 µg/mL (≈ 0.172 µM)
- MIC (S. pneumoniae; P21 (serotype 3), 5% FBS): 0.06 µg/mL (≈ 0.172 µM)
- MIC50 (S. pneumoniae; S1 Table isolates, 5% FBS): 0.125 µg/mL (≈ 0.358 µM)
- MIC90 (S. pneumoniae; S1 Table isolates, 5% FBS): 0.5 µg/mL (≈ 1.43 µM)
- MIC (S. pneumoniae; TIGR4 (serotype 4), 5% FBS): 0.125 µg/mL (≈ 0.358 µM)
- MIC (S. pneumoniae; WCH16 (serotype 6A), 5% FBS): 1 µg/mL (≈ 2.86 µM)
- MIC (S. pneumoniae; WCH43 (serotype 4), 5% FBS): 0.125 µg/mL (≈ 0.358 µM)
- MIC (S. pneumoniae; WCH46 (serotype 4), 5% FBS): 0.125 µg/mL (≈ 0.358 µM)
- MIC (S. pneumoniae; WCH57 (serotype 8), 5% FBS): 0.5 µg/mL (≈ 1.43 µM)
- MIC (S. pneumoniae; WCH77 (serotype 5), 5% FBS): 0.5 µg/mL (≈ 1.43 µM)
- MIC (S. pneumoniae; WCH86 (serotype 4), 5% FBS): 0.06 µg/mL (≈ 0.172 µM)
- MIC (S. pneumoniae; WCH89 (serotype 7), 5% FBS): 0.125 µg/mL (≈ 0.358 µM)
- MIC (S. pneumoniae; WCH92 (serotype 4), 5% FBS): 0.5 µg/mL (≈ 1.43 µM)
- MIC (S. pneumoniae; WCH137 (serotype 6A), 5% FBS): 0.06 µg/mL (≈ 0.172 µM)
- MIC (S. pneumoniae; WCH158 (serotype 19F), 5% FBS): 0.125 µg/mL (≈ 0.358 µM)
- MIC (S. pneumoniae; WCH184 (serotype 19F), 5% FBS): 0.125 µg/mL (≈ 0.358 µM)
- MIC (S. pneumoniae; WCH211 (serotype 11), 5% FBS): 0.125 µg/mL (≈ 0.358 µM)
- MIC (S. pneumoniae; WU2 (serotype 3), 5% FBS): 0.125 µg/mL (≈ 0.358 µM)

SMILES: CCCCCCCCCC(=O)N[C@@H](Cc1c[nH]c2ccccc12)C(=O)N[C@H](CC(N)=O)C(=O)N[C@@H](CC(=O)O)C(=O)N[C@@H]1C(=O)NCC(=O)N[C@@H](CCCN)C(=O)N[C@@H](CC(=O)O)C(=O)N[C@H](C)C(=O)N[C@@H](CC(=O)O)C(=O)NCC(=O)N[C@H](CO)C(=O)N[C@@H]([C@H](C)CC(=O)O)C(=O)N[C@@H](CC(=O)c2ccccc2N)C(=O)O[C@@H]1C [Daptomycin, daptomycin]
- Time to clear all Xen29 (S. aureus Xen29): 1 h
- MIC90 (S. aureus; 23 isolates): 0.5 µg/mL (≈ 0.309 µM)
- MIC (S. aureus; ATCC 12600 / MSSA, ATCC12600 [Xen29] (MSSA), 10% FBS): 0.5 µg/mL (≈ 0.309 µM)
- MIC (S. aureus; ATCC 12600 / MSSA, ATCC12600 [Xen29] (MSSA), absence of FBS): 0.5 µg/mL (≈ 0.309 µM)
- MIC (S. aureus; [1]): 0.5 µg/mL (≈ 0.309 µM)
- MIC (S. aureus; ATCC 49775 / MSSA, ATCC 49775 (MSSA), absence of FBS): 0.5 µg/mL (≈ 0.309 µM)
- MIC (S. aureus; [2]): 0.5 µg/mL (≈ 0.309 µM)
- MIC (S. aureus; [3]): 0.5 µg/mL (≈ 0.309 µM)
- MIC (S. aureus; [4]): 0.5 µg/mL (≈ 0.309 µM)
- MIC (S. aureus; [5]): 1 µg/mL (≈ 0.617 µM)
- MIC (S. aureus; [6]): 0.5 µg/mL (≈ 0.309 µM)
- MIC (S. aureus; [7]): 0.5 µg/mL (≈ 0.309 µM)
- MIC (S. aureus; [8]): 0.5 µg/mL (≈ 0.309 µM)
- MIC (S. aureus; [9]): 0.5 µg/mL (≈ 0.309 µM)
- MIC (S. aureus; [10]): 0.25 µg/mL (≈ 0.154 µM)
- MIC (S. aureus; [11]): 0.5 µg/mL (≈ 0.309 µM)
- MIC (S. aureus; [12]): 0.5 µg/mL (≈ 0.309 µM)
- MIC50 (S. aureus; [13]): 0.5 µg/mL (≈ 0.309 µM)
- MIC90 (S. aureus; [13]): 0.5 µg/mL (≈ 0.309 µM)
- MIC (S. aureus; [14]): 0.5 µg/mL (≈ 0.309 µM)
- MIC (S. aureus; [15]): 0.5 µg/mL (≈ 0.309 µM)
- MIC (S. aureus; [16]): 0.5 µg/mL (≈ 0.309 µM)
- MIC (S. aureus; [17]): 0.5 µg/mL (≈ 0.309 µM)
- MIC (S. aureus; [18]): 0.5 µg/mL (≈ 0.309 µM)
- MIC range (S. pneumoniae; [19]): 0.125 to 0.5 µg/mL
- MIC90 (S. pneumoniae; 21 isolates): 0.5 µg/mL (≈ 0.309 µM)
- MIC (S. pneumoniae; A66.1 (serotype 3), 5% FBS): 0.25 µg/mL (≈ 0.154 µM)
- MIC (S. pneumoniae; [20]): 0.25 µg/mL
- MIC (S. pneumoniae; [21]): 0.25 µg/mL (≈ 0.154 µM)
- MIC (S. pneumoniae; D39/D39LUX (serotype 2), 10% FBS): 0.25 µg/mL (≈ 0.154 µM)
- MIC (S. pneumoniae; EF3030 (serotype 19F), 5% FBS): 0.25 µg/mL (≈ 0.154 µM)
- MIC (S. pneumoniae; L82016 (serotype 6B), 5% FBS): 0.25 µg/mL (≈ 0.154 µM)
- MIC (S. pneumoniae; P9 (serotype 6A), 5% FBS): 0.25 µg/mL (≈ 0.154 µM)
- MIC (S. pneumoniae; P21 (serotype 3), 5% FBS): 0.25 µg/mL (≈ 0.154 µM)
- MIC50 (S. pneumoniae; S1 Table isolates, 5% FBS): 0.25 µg/mL (≈ 0.154 µM)
- MIC90 (S. pneumoniae; S1 Table isolates, 5% FBS): 0.25 µg/mL (≈ 0.154 µM)
- MIC (S. pneumoniae; TIGR4 (serotype 4), 5% FBS): 0.25 µg/mL (≈ 0.154 µM)
- MIC (S. pneumoniae; WCH16 (serotype 6A), 5% FBS): 0.25 µg/mL (≈ 0.154 µM)
- MIC (S. pneumoniae; WCH43 (serotype 4), 5% FBS): 0.25 µg/mL (≈ 0.154 µM)
- MIC (S. pneumoniae; WCH46 (serotype 4), 5% FBS): 0.125 µg/mL (≈ 0.0771 µM)
- MIC (S. pneumoniae; WCH57 (serotype 8), 5% FBS): 0.25 µg/mL (≈ 0.154 µM)
- MIC (S. pneumoniae; WCH77 (serotype 5), 5% FBS): 0.5 µg/mL (≈ 0.309 µM)
- MIC (S. pneumoniae; WCH86 (serotype 4), 5% FBS): 0.125 µg/mL (≈ 0.0771 µM)
- MIC (S. pneumoniae; WCH89 (serotype 7), 5% FBS): 0.5 µg/mL (≈ 0.309 µM)
- MIC (S. pneumoniae; WCH92 (serotype 4), 5% FBS): 0.125 µg/mL (≈ 0.0771 µM)
- MIC (S. pneumoniae; WCH137 (serotype 6A), 5% FBS): 0.125 µg/mL (≈ 0.0771 µM)
- MIC (S. pneumoniae; WCH158 (serotype 19F), 5% FBS): 0.125 µg/mL (≈ 0.0771 µM)
- MIC (S. pneumoniae; WCH184 (serotype 19F), 5% FBS): 0.25 µg/mL (≈ 0.154 µM)
- MIC (S. pneumoniae; WCH211 (serotype 11), 5% FBS): 0.25 µg/mL (≈ 0.154 µM)
- MIC (S. pneumoniae; WU2 (serotype 3), 5% FBS): 0.125 µg/mL (≈ 0.0771 µM)
